Where two headings read alike, the source gives them in different places.
Tests used:
[1] = system: Hep G2 (ATCC HB-8065) cells; experiment: Cytotoxicity, MTT assay; type: cell-based; conditions: Homo sapiens, HepG2, 24 h
Experimental: (§1) Before removing the frozen cell stocks from liquid nitrogen, culture medium was pre-warmed to 37° C. The frozen tube was then removed from liquid nitrogen and placed into a 37° C. water bath and shaken gently to thaw the cell stock as quickly as possible. A small portion of the pre-warmed culture medium was added to the cell solution. The cell suspension was then centrifuged at 1000 r/min for 3 minutes. The supernatant was discarded and the cells were resuspended in fresh culture medium.
(§2) NIH 3T3 (ATCC CRL-1658) and Hep G2 (ATCC HB-8065) cells were cultured with DMEM+10% FBS in 100 mm dishes. Cells were lifted for subculture or testing when confluence reached ˜60% by treating with 1× trypsin (incubated for 3 min at 37° C.). J774 (ATCC TIB-67) cells were cultured with DMEM+10% FBS in 100 mm dishes. Cells were lifted for subculture or testing when confluence reached ˜80% using a cell scraper. RAW264.7 (ATCC TIB-71) cells were cultured with DMEM+10% heat-inactivated FBS+1% pen/strep in T75 flasks. Cells were lifted for subculture or testing when confluence reached ˜80% using a cell scraper.
(§3) • 1. Cells were lifted and resuspended in culture medium. The number of cells in the cell suspension was determined using an auto-cell counter: 10 μL of the cell suspension was mixed with 10 μL 1× trypan blue (filtered with 0.2 μm PES filter) and the mixture was loaded onto a cell counting slide. Based on the concentration of viable cells, the cell suspension was further diluted to achieve the desired density. • 2. Cells were seeded in 96 well plates by adding 100 μL final cell suspension column-by-column using a multichannel pipette (5000 cells/well for NIH 3T3, 10000 cells/well for Hep G2, J774 and RAW264.7). The outer wells were block with PBS to reduce the effects of evaporation. One column was filled with only culture medium as a blank. Cells were incubated overnight before adding the test articles. • 3. Test articles were dissolved in 1×PBS (or DMSO) to obtain stocks solution. Stock solutions were pre-warmed before use. […] Serial dilutions (2-fold) of the 10× solutions were made in sterile culture tubes by diluting in 1×PBS (8 dilutions to yield 9 test concentrations). 900 μL of culture media was added to each tube to obtain final drug solution containing 10% PBS (or less than 1% DMSO) for each experimental group. • 4. The original culture medium was gently removed from the 96-well plates using a pipette. 100 μL of the test article solutions prepared in Step 3 were added to rows 2-7 of each column to obtain six replicates for each concentration. Plates were then incubated for 24 hours. • 5. MTT solutions were prepared by dissolving commercial MTT powder in 1×PBS to a concentration of 5 mg/mL. After passing through a 0.22 μm PES filter, the MTT solution was divided into 1 mL portions in sterile centrifuge tubes and stored at −20° C. • 6. MTT stock solutions were removed from the freezer to thaw at room temperature. Before adding MTT solutions, cell cultures were visually inspected and imaged using a microscope (to use as a comparison with MTT results). 10 μL of the 5 mg/mL MTT solution was added to each well and the plate was incubated for 4 hours. • 7. After 4 h incubation, the culture medium/MT solution was removed gently using a pipette. 100 μL of DMSO was added to each well using a multichannel pipette. The 96-well plates were analyzed in a plate reader using the following method: shake for 5 minutes, wait for 30 seconds, and measure absorbance at 570 nm. • 8. Data processing: The average of background Abg was calculated from the blank column. All other data was first treated by subtracting Abg. The average A. and standard deviation Se of each experimental group and the average Ac and standard deviation Sc for control group (with pure culture medium incubation) were then calculated. The cell viability was determined as Ae/Ac×100% and corresponding error as Se/Ae×100%. Significant outliers in any experimental or control group were removed. […]

Cytotoxicity, MTT assay = type: cell-based; conditions: human, Hep G2 (ATCC HB-8065) cells; Hep G2; at the concentration given as IC50 bound; read-out: cell viability at the highest or lowest test concentration
Experimental: as §1, §2, §3

E. coli K12 (ATCC 47076) = experiment: MIC broth microdilution method, Table 3; conditions: Escherichia coli, ATCC47076
[2] = system: S. epidermidis (ATCC 14990); experiment: MIC broth microdilution method, Table 3; conditions: Staphylococcus epidermidis, ATCC14990
[3] = system: NIH 3T3 (ATCC CRL-1658) cells; experiment: Cytotoxicity, MTT assay; type: cell-based; conditions: Mus musculus, NIH3T3; NIH 3T3; MTT, 24 hours incubation; read-out: IC50
Experimental: as §1, §2, §3

[4] = Hep G2, MTT, 24 hours incubation, read-out: IC50

SMILES	IC50 [1, 4] [µg/mL]	viability at 24 h (Cytotoxicity, MTT assay) [%]	MIC (E. coli K12 (ATCC 47076)) [µg/mL]	MIC [2] [µg/mL]	IC50 [3] [µg/mL]	IC50 [1] [µg/mL]
C[C@@H](O)[C@H]1C(=O)N2C(C(=O)O)=C(S[C@@H]3CN[C@H](C(=O)N(C)C)C3)[C@H](C)[C@H]12 [Meropenem, reference compound]	> 128	96	–	–	–	–
C[N+](C)(CCCOc1cc(/C=C/c2ccc(/C=C/c3cc(OCCC[N+](C)(C)CC(O)CO)cc(OCCC[N+](C)(C)CC(O)CO)c3)cc2)cc(OCCC[N+](C)(C)CC(O)CO)c1)CC(O)CO (stereo not shown) [Formula OO]	> 1020	61	> 128	> 64	–	–
C[N+](C)(CCCN)CCCOc1cc(/C=C/c2ccc(/C=C/c3cc(OCCC[N+](C)(C)CCCN)cc(OCCC[N+](C)(C)CCCN)c3)cc2)cc(OCCC[N+](C)(C)CCCN)c1 [Formula PP]	–	–	32	16	–	–
C[N+](C)(C)CCCCCCN(CCCCCC[N+](C)(C)C)c1ccc(/C=C/c2ccc(/C=C/c3ccc(/C=C/c4ccc(N(CCCCCC[N+](C)(C)C)CCCCCC[N+](C)(C)C)cc4)cc3)cc2)cc1 [Formula VV]	> 128	64	–	–	–	–
CCCC[N+](C)(CCCCOc1cc(/C=C/c2ccc(/C=C/c3cc(OCCCC[N+](C)(CCCC)CCOCCOC)cc(OCCCC[N+](C)(CCCC)CCOCCOC)c3)cc2)cc(OCCCC[N+](C)(CCCC)CCOCCOC)c1)CCOCCOC (stereo not shown) [Formula GG]	–	–	32	–	77.8	–
CCCCCC[N+](C)(CCCCOc1cc(/C=C/c2ccc(/C=C/c3cc(OCCCC[N+](C)(CCCCCC)CCOCCOCCOC)cc(OCCCC[N+](C)(CCCCCC)CCOCCOCCOC)c3)cc2)cc(OCCCC[N+](C)(CCCCCC)CCOCCOCCOC)c1)CCOCCOCCOC (stereo not shown) [Formula KK]	–	–	16	–	–	–
C[N+](C)(C)CCCOc1cc(/C=C/c2ccc(/C=C/c3cc(OCCC[N+](C)(C)C)cc(OCCC[N+](C)(C)C)c3)cc2)cc(OCCC[N+](C)(C)C)c1 [Formula X]	> 1020	73	64	–	–	–
C[N+](C)(C)CCCCCCOc1cc(/C=C/c2ccc(/C=C/c3ccccc3)cc2)cc(OCCCCCC[N+](C)(C)C)c1OCCCCCC[N+](C)(C)C [Formula WW]	45.4	–	16	2	30.9	–
C[N+]12CC[N+](CCCOc3cc(/C=C/c4ccc(/C=C/c5cc(OCCC[N+]67CC[N+](C)(CC6)CC7)cc(OCCC[N+]67CC[N+](C)(CC6)CC7)c5)cc4)cc(OCCC[N+]45CC[N+](C)(CC4)CC5)c3)(CC1)CC2 [Formula DD]	> 128	85	64	16	–	–
C(=C\c1cc(OCCCCCC[n+]2ccccc2)cc(OCCCCCC[n+]2ccccc2)c1)/c1cc(OCCCCCC[n+]2ccccc2)cc(OCCCCCC[n+]2ccccc2)c1.[I-].[I-].[I-].[I-] [Formula C]	–	–	–	–	–	29.7

Source: patent US11713318B2, “Short conjugated oligoelectrolytes and uses thereof” (The Regents Of The University Of California, priority 2018, dated 2023)
